Bounds are passed on as bounds.

The inhibition is the change of the read-out against control, counted positive when it falls.

Holding throughout (format): biochemical
One assay addresses PI3K alpha (Homo sapiens, UniProt P42336). The assay is described as follows: PI3 Kinase Assay (PI3K alpha). The method, then:
(§1) PI3-Kinase reactions were performed in […], pH 7, […], and 25 μM ATP, with diC8-PI(4,5)P2 (Echelon, Salt Lake City Utah) as substrate. Nunc 384 well black polypropylene fluorescent plates were used for PI3K assays. Reactions were quenched by the addition of EDTA to a final concentration of […]. Final reaction volumes were […]. For evaluation of PI 3-K inhibitors, 5 ng of enzyme and 2.5 μM of substrate was used per […] reaction volume, and inhibitor concentrations ranged from 100 μM to […]; the final level of DMSO in reactions never exceeded 2%. Reactions were allowed to proceed for one hour at 25° C. After 1 hour, GST-tagged GRP1 (general receptor for phosphoinositides) PH domain fusion protein was added to a final concentration of 100 nM, and BODIPY-TMRI(1,3,4,5)P4 (Echelon) was also added to a final concentration of 5 nM. Final sample volumes were 25 μl with a final DMSO concentration of 0.8%. Assay Plates were read on Perkin-Elmer Envision plate readers with appropriate filters for Tamra [BODIPY-TMRI(1,3,4,5)P4]. Data obtained were used to calculate enzymatic activity and enzyme inhibition by inhibitor compounds.

The next assay addresses PI3K gamma (Homo sapiens, UniProt P48736). The assay is described as follows: PI3 Kinase Assay (PI3K gamma). The note with it: 1 h. On the procedure:
as §1

In another assay the target is T1, recombinant human B-Raf (Homo sapiens, UniProt P15056).
T1 construct: Flag; GST; purchased Upstate; host or cells: Sf21 insect cells
T1 sequence (P15056 whole entry): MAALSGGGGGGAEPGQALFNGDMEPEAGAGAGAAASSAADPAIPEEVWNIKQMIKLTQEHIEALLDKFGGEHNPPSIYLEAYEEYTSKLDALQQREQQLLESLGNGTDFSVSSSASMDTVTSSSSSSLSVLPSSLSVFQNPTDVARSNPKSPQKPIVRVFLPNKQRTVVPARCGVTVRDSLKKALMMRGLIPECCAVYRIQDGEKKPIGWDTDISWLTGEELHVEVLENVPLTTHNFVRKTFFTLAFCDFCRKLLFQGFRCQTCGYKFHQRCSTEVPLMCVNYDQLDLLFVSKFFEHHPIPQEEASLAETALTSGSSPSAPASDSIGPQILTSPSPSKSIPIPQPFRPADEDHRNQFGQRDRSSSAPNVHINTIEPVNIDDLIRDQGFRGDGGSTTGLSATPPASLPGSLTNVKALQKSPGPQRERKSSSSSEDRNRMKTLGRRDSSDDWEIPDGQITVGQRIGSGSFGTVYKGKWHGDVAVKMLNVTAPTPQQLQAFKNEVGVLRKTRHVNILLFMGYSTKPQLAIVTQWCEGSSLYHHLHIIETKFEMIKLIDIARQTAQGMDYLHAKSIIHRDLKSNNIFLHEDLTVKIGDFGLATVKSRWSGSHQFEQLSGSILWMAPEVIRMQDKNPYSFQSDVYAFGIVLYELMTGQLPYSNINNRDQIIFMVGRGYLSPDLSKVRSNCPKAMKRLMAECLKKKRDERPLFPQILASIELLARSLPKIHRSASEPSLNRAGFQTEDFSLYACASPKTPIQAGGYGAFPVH
The assay is described as follows: B-Raf Kinase Assay. The method, then:
Reagents: Flag/GST-tagged recombinant human B-Raf produced in Sf21 insect cells (purchased from Upstate), human Mek-1-GST, non-active recombinant protein produced in E. coli (from Upstate); and a phospho-MEK1 specific poly-clonal Ab from Cell Signaling Technology (cat. #9121).
• B-Raf-1 is used to phosphorylate GST-MEK1. MEK1 phosphorylation is measured by a phospho-specific antibody (from Cell Signaling Technology, cat. #9121) that detects phosphorylation of two serine residues at positions 217 and 221 on MEK1.
1. Assay Dilution Buffer (ADB): 20 mM MOPS, pH 7.2, 25 mM β-glycerol phosphate, 5 mM EGTA, 1 mM sodium orthovanadate, 1 mM dithiothreitol, 0.01% Triton X-100. 2. Magnesium/ATP Cocktail: ADB solution (minus Triton X-100) plus 200 μM cold ATP and 40 mM magnesium chloride. 3. Active Kinase: Active B-Raf: used at 0.2 nM per assay point. 4. Non-active GST-MEK1: Use at 2.8 nM final concentration). 5. TBST-Tris (50 mM, pH 7.5), NaCl (150 mM), Tween-20 (0.05%)
7. Anti pMEK Ab (Upstate) 8. Anti-rabbit Ab/Europium conjugate (Wallac)
1. Add 25 μl of ADB containing B-Raf and Mek per assay (i.e. per well of a 96 well plate) 2. Add 25 μl of 0.2 mM ATP and 40 mM magnesium chloride in Magnesium/ATP Cocktail. 3. Incubate for 45 minutes at RT with occasional shaking. 4. Transfer this mixture to an anti-GST Ab coated 96 well plate (Nunc Immunosorb plates coated o/n with a-GST. Plate freshly washed 3× with TBS-T before use. 5. Incubate o/n at […] in cold room. 6. Wash 3× with TBST, add Anti-Phospho MEK1 (1:1000, dilution depends upon lot) 7. Incubate for 60 minutes at RT in a shaking incubator 8. Wash 3× with TBST, add Anti-rabbit Ab/Europium conjugate (Wallac) (1:500, dilution depends upon lot) 9. Incubate for 60 minutes at RT on a platform shaker. 10. Wash plate 3× with TBS-T 11. Add 100 ul of Wallac Delfia Enhancement Solution and shake for 10 minutes. 12. Read plates in Wallac Victor model Plate Reader. 13. Collect data analyze in Excel for single point and IC50 determinations.

The target of the next assay is T2, human recombinant MK2 (Homo sapiens, UniProt P49137).
T2 construct: human recombinant MK2 (25 nM) containing residues 41 through 353
T2 sequence (P49137 41-353): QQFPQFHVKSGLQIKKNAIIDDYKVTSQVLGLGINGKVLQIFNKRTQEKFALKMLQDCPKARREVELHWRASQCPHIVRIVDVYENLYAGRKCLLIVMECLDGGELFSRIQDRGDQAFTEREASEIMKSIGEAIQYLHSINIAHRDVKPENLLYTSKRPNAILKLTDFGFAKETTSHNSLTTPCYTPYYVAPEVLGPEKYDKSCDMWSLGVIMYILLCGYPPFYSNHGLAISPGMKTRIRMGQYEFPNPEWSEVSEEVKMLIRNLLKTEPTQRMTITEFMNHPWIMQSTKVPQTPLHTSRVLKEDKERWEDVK
The assay is described as follows: MK2 kinase ELISA based assay. On the procedure:
MK2 kinase activity was assessed using human recombinant MK2 (25 nM) containing residues 41 through 353 in an ELISA based assay. The kinase reaction was performed on 96-well streptavidin coated plates using a biotinylated 16-mer peptide as a substrate derived from LSP1 in 20 mM Hepes pH7.4, 10 mM MgCl2, 3 mM DTT, 1 uM ATP, 0.01% Triton X100, 2% DMSO and various compound concentrations in a final volume of 100 ul. The reaction was stopped after 30 min incubation at room temperature with 50 ul of 0.5M EDTA and washed 6 times in PBS 0.05% Tween 20. Polyclonal anti phospho-LSP1 antibodies was then added to the plate along with a Goat anti-Rabbit antibody labeled with europium in 20 mM MOPS, 150 mM NaCl, 0.025% Tween 20, 0.02% gelatin, 1% BSA for 1 hour at room temperature. The plate was then washed 6 times in PBS 0.05% Tween 20 and enhancement solution from Perkin Elmer was added before counting on a Victor 2 reader from Perkin Elmer.
A general note: ELISA stands for enzyme-linked immunosorbent assay.

Another assay addresses T3, human recombinant IRAK4 (Homo sapiens, UniProt Q9NWZ3).
T3 construct: human recombinant IRAK4 (4 nM) containing residues 154 through 460
T3 sequence (Q9NWZ3 154-460): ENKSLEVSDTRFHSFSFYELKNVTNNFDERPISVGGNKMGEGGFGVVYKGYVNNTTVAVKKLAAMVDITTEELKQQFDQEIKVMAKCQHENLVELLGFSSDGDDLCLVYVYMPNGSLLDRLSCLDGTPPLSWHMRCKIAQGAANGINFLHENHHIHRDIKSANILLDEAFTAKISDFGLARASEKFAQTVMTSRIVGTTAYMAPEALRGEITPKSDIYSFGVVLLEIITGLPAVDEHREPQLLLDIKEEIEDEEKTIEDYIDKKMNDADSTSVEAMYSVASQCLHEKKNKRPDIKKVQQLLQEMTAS
The assay is described as follows: IRAK4 kinase ELISA based assay. On the procedure: IRAK4 kinase activity was assessed using human recombinant IRAK4 (4 nM) containing residues 154 through 460 in an ELISA based assay. The kinase reaction was performed on 96-well streptavidin coated plates using a biotinylated 11-mer peptide derived from MK2 in 20 mM Hepes pH7.4, 10 mM MgCl2, 3 mM DTT, 600 uM ATP, 0.01% Triton X100, 5% DMSO and various compound concentrations in a final volume of 100 ul. The reaction was stopped after 60 min incubation at room temperature with 50 ul of 0.5M EDTA and washed 6 times in PBS 0.05% Tween 20. A Rabbit polyclonal anti-phospho-threonine antibody was then added to the plate along with a Goat anti-Rabbit antibody labeled with europium in 20 mM MOPS, 150 mM NaCl, 0.025% Tween 20, 0.02% gelatin, 1% BSA for 1 hour at room temperature. The plate was then washed 6 times in PBS 0.05% Tween 20 and enhancement solution from Perkin Elmer was added before counting on a Victor 2 reader from Perkin Elmer.

Chain of PI3K gamma (P48736 whole entry, species assumed): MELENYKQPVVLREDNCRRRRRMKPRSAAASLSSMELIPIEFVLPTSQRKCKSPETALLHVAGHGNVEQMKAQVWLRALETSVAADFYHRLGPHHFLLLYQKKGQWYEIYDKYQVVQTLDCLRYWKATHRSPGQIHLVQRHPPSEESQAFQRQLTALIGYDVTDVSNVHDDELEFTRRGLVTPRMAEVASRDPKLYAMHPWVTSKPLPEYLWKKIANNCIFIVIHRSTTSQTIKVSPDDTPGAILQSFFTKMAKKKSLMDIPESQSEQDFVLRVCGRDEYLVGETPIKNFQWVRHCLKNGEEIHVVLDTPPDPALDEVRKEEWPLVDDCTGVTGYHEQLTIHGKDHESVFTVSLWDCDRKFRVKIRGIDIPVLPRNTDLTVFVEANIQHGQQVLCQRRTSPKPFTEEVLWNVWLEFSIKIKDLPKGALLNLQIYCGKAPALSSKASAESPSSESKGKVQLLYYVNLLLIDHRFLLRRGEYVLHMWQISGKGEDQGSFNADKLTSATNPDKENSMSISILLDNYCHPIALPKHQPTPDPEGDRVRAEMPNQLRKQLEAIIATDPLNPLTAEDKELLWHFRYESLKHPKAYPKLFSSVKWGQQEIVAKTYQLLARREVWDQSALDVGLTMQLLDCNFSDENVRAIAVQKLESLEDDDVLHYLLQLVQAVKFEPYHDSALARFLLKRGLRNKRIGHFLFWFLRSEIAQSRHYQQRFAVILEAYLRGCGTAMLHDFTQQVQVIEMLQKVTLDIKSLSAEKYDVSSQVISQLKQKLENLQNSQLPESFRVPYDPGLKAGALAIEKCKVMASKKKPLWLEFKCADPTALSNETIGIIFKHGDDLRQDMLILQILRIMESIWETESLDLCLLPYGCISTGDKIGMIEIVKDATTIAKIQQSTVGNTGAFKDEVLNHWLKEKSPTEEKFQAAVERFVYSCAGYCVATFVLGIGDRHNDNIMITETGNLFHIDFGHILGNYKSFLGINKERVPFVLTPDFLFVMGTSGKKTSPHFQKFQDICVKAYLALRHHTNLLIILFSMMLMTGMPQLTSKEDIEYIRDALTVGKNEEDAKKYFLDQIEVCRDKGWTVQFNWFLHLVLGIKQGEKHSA
Chain of PI3K alpha (P42336 whole entry, species assumed, the tested form may be a part): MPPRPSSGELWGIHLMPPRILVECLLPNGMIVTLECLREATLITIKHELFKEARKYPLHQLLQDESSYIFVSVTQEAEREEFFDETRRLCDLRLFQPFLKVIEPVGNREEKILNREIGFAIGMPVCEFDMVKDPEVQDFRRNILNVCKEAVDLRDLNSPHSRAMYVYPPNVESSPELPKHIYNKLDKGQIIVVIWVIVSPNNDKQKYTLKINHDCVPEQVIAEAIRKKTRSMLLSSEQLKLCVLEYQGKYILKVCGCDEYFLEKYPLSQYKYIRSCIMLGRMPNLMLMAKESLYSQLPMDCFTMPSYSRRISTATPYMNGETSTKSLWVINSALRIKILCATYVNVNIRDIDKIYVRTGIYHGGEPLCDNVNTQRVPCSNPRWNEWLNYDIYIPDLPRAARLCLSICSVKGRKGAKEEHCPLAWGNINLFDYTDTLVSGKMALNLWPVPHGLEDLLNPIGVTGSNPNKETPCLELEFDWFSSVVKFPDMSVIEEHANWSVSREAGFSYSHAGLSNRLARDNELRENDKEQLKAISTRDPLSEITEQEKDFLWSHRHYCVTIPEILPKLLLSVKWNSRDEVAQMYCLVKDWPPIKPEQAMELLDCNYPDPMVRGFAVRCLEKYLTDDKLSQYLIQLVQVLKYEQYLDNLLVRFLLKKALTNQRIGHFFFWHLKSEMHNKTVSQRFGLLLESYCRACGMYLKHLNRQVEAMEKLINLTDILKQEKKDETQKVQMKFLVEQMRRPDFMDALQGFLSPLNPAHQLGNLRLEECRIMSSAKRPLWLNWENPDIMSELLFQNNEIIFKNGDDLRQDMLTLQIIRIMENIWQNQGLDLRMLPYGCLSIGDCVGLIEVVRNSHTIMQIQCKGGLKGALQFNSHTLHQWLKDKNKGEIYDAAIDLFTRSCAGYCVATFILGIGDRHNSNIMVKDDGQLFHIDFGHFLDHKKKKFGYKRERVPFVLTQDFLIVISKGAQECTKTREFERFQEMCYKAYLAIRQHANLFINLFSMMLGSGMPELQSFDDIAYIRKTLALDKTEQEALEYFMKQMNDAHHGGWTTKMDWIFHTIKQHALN
Chain of PI3K alpha (P27986 whole entry partner, species assumed, the tested form may be a part): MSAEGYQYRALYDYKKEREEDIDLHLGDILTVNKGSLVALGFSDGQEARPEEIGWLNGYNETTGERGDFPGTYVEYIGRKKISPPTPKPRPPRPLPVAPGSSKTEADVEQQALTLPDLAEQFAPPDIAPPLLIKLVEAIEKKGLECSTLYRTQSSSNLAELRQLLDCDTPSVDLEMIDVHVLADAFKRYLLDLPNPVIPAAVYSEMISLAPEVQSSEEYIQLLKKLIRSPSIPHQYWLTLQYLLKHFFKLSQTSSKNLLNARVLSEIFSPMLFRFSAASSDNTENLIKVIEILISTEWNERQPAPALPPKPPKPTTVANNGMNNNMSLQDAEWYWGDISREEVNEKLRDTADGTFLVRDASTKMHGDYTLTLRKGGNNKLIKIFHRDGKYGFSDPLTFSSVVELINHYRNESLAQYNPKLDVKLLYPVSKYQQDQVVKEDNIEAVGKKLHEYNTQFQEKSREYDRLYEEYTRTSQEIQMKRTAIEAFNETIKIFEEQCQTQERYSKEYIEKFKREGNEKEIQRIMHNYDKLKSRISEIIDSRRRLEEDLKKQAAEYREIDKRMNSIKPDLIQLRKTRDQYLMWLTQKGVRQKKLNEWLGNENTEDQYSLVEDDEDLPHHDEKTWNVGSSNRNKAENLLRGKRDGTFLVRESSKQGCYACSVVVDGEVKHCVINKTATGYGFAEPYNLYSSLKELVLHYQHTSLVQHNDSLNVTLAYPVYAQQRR

For the molecule `c1ccc2c(Oc3ccsc3)ncnc2c1` [Example 30, 4-(Thiophen-3-yloxy)quinazoline], the inhibition at 30 µM against PI3K alpha worked out at 87%; against PI3K gamma it was 55%; on human recombinant MK2, 34%. For the same molecule, the inhibition at 10 µM at recombinant human B-Raf stood at 14%; at human recombinant IRAK4, 39%.

For the molecule `COc1ncccc1Oc1ncnc2ccccc12` [Example 28, 4-(2-Methoxypyridin-3-yloxy)quinazoline], the inhibition at 30 µM on PI3K alpha was 22%; against PI3K gamma, less than 10%.

Regarding `CC(=O)c1ccccc1Oc1ncc(Br)cn1` [compound 44, 1-[2-(5-Bromo-pyrimidin-2-yloxy)-phenyl]-ethanone], the figures for the inhibition at 30 µM at PI3K alpha and at PI3K gamma were 72% and 44%, respectively.

As to `CC(=O)c1ccc(Oc2ncnc3ccccc23)cc1` [Example 22, 1-(4-(Quinazolin-4-yloxy)phenyl)ethanone], the inhibition at 30 µM against PI3K alpha came to 34%; against PI3K gamma, 45%.

Take `N#Cc1cccc(Oc2ncnc3sccc23)c1` [Example 32, 3-(Thieno[2,3-d]pyrimidin-4-yloxy)benzonitrile]: the values for the inhibition at 30 µM against PI3K alpha and against PI3K gamma were 32% and less than 10%, respectively.

On to `Cc1noc(C)c1Oc1ncnc2sccc12` [Example 35, 3,5-Dimethyl-4-(thieno[2,3-d]pyrimidin-4-yloxy)isoxazole], for which the inhibition at 30 µM on PI3K alpha came out at 26%; on PI3K gamma it was 11%.

For the molecule `COC(=O)c1sc2ncnc(Oc3cccc([N+](=O)[O-])c3)c2c1C` [Example 37, Methyl 5-methyl-4-(3-nitrophenoxy)thieno[2,3-d]pyrimidine-6-carboxylate], the inhibition at 30 µM at PI3K alpha turned out to be 24%; against PI3K gamma, 16%.

For the molecule `COc1ncccc1Oc1ccn(C)c(=O)n1` [Example 59, 4-(2-Methoxypyridin-3-yloxy)-1-methylpyrimidin-2(1H)-one], the inhibition at 30 µM at PI3K alpha is 46%; on PI3K gamma it was less than 10%.

`COc1ncccc1Oc1ncc(Br)cn1` [Example 57, 5-Bromo-2-(2-methoxypyridin-3-yloxy)pyrimidine]: the values for the inhibition at 30 µM against PI3K alpha and on PI3K gamma were 44% and less than 10%, respectively.

With `N#Cc1ccc(Oc2ncnc3ccccc23)cc1` [Example 24, 4-(Quinazolin-4-yloxy)benzonitrile], the results for the inhibition at 30 µM against PI3K alpha and against PI3K gamma were 18% and less than 10%, respectively.

In the case of `Cn1ccc(Oc2ccccc2)nc1=O` [Example 58, 1-Methyl-4-phenoxypyrimidin-2(1H)-one], the inhibition at 30 µM on PI3K alpha was 32%; against PI3K gamma it was less than 10%. Further, the inhibition at 10 µM at recombinant human B-Raf was 17%.

Take `COc1ccc(Oc2ncnc3ccccc23)cc1` [Example 20, 4-(4-Methoxyphenoxy)quinazoline]: the inhibition at 30 µM was found to be 65% on PI3K alpha and 4% against PI3K gamma.

Consider `COC(=O)c1sc2ncnc(Oc3ccccc3)c2c1C` [Example 36, Methyl 5-methyl-4-phenoxythieno[2,3-d]pyrimidine-6-carboxylate], for which the inhibition at 30 µM at PI3K alpha was 63%; on PI3K gamma it was 36%.

Consider `c1ccc2c(Oc3ccc4[nH]ccc4c3)ncnc2c1` [Example 29, 4-(1H-Indol-5-yloxy)quinazoline], for which the inhibition at 30 µM was determined as 68% against PI3K alpha and 21% against PI3K gamma. Further, the inhibition at 10 µM on recombinant human B-Raf was determined as 21%.

In the case of `O=[N+]([O-])c1cccc(Oc2ncnc3ccccc23)c1` [Example 19, 4-(3-Nitrophenoxy)quinazoline], the inhibition at 30 µM is 24% against PI3K alpha and less than 10% on PI3K gamma.

Regarding `COC(=O)c1sc2ncnc(Oc3cccc(C#N)c3)c2c1C` [Example 38, Methyl 4-(3-cyanophenoxy)-5-methylthieno[2,3-d]pyrimidine-6-carboxylate], the results for the inhibition at 30 µM against PI3K alpha and against PI3K gamma were 40% and 23%, respectively.

As to `Clc1ccc(Oc2ncnc3ccccc23)cn1` [Example 25, 4-(6-Chloropyridin-3-yloxy)quinazoline], the inhibition at 30 µM on PI3K alpha turned out to be 42%; at PI3K gamma, 11%; on human recombinant MK2 it was 31%. The results for the inhibition at 10 µM at recombinant human B-Raf and on human recombinant IRAK4 were 20% and 19%, respectively.

For the molecule `FC(F)(F)c1ccc(Oc2ncnc3ccccc23)cc1` [Example 21, 4-(4-(Trifluoromethyl)phenoxy)quinazoline], the inhibition at 30 µM at PI3K alpha was found to be 36%; at PI3K gamma it was 6%.

Take `O=[N+]([O-])c1cccc(Oc2ncnc3sccc23)c1` [Example 34, 4-(3-Nitrophenoxy)thieno[2,3-d]pyrimidine]: the inhibition at 30 µM on PI3K alpha is 14%; against PI3K gamma, less than 10%.

For the molecule `COC(=O)c1sc2ncnc(Oc3c(C)noc3C)c2c1C` [Example 39, Methyl 4-(3,5-dimethylisoxazol-4-yloxy)-5-methylthieno[2,3-d]pyrimidine-6-carboxylate], the inhibition at 30 µM is 24% on PI3K alpha, 15% against PI3K gamma and 32% on human recombinant MK2. Also, the inhibition at 10 µM on human recombinant IRAK4 amounted to 21%.

These data come from patent publication US20090291971A1, “HETEROARYL ETHERS AND PROCESSES FOR THEIR PREPARATION” (Wyeth, priority 2007, published 2009).
